Measurements as given in patent publication US10344266B2, “Cell mass capable of serving as a primitive organ-like structure comprised of a plurality of cell types of somatic origin” (priority 2006, dated 2019).

Assays:
Type in all cases: cell-based, human
SHH (Sonic Hedge Hog) = test: RT-PCR analysis (1) of cell mass, SHH; conditions: in the presence of BIO (same in its absence), FIG. 7
Method: (§1) Hair papilla cells were prepared to P3 or more (with P1 indicating one round of subculturing) in the presence or absence of BIO loading, while keratinocytes were prepared up to and including P3.
(§2) Each of the cells was diluted with each medium following trypsin treatment so as to obtain 1×10^5 cells.
(§3) In the case of adding BIO (Calbiochem), the BIO was dissolved to 10 mM with dimethylsulfoxide (DMSO) and added to a concentration of 0.1 to 5 μM.
(§4) 25 to 35 μl of each culture medium was dispensed onto the inside of the upper lid of a square culture dish measuring 10 cm on a side and mixed to prepare dome-shaped droplets of a suitable size.
(§5) Three days later, the medium was replaced with the same medium as that used above.
(§6) After culturing for an additional four days, a portion of the medium was subjected to RT-PCR analysis (1) as described below. All of the remaining media was replaced with medium under conditions of the absence of BIO.
(§7) RNA was extracted from each sample using Trizol (Invitrogen). An equivalent of 200 ng of each RNA was reverse transcribed to cDNA with a reaction system consisting of 50 μl of RevTraACE (Toyobo). 1 μl of the resulting samples was applied to a PCR reaction in a 50 μl system using the primers listed below. […]

[1] = test system: cell mass of hair papilla cells and epidermal keratinocytes; test: Immunohistofluorescent staining of hanging-drop cell mass (hair papilla cells and keratinocytes)
Method: 30% Advanced DMEM (Invitrogen), 2 mM L-glutamine, a mixture of penicillin and streptomycin (Invitrogen, 100-fold dilution) and 3.5 μl/50 ml of β-mercaptoethanol were mixed with Humedia KG-2 (Kurabo) at a ratio of 1:1.
as §3, §1, §2, §4
(§8) Three days later, the medium was replaced with the same medium as that used above. […]
In the color version of this diagram, green coloring by vimentin antibody and red coloring by CD49f antibody can be distinguished, and each were able to be determined to be hair papilla cells and keratinocytes, respectively. […] After the cell masses formed following the addition of BIO, red-staining keratinocytes were determined to be growing in a regular manner in the form of branches within cell masses cultured in the absence of BIO. […]

Wnt10B = Wnt10B RT-PCR, RT-PCR analysis (3), quantitative PCR of cell mass; conditions: FIG. 9
Method: Hair papilla cells were prepared to P3 (with P1 indicating one round of subculturing) in the absence of BIO loading, while outer root sheath cells were prepared up to and including P3.
(§9) Each of the cells was diluted with each medium following trypsin treatment so as to obtain 3×10^3 cells.
(§10) BIO (Calbiochem) was dissolved to 10 mM with dimethylsulfoxide (DMSO) and added to a concentration of 0.1 to 5 μM.
as §4, §8
RNA was extracted from the samples using Trizol (Invitrogen). […] 4 μl of the resulting samples were applied to a quantitative PCR system (LightCycler System, Roche) in a 20 μl system using the primers listed below. […]
All data was expressed as the relative expressed amount based on the expressed amount after 3 days in the case of not loading the cell mass with BIO. […] Accordingly, in this experimental system, differentiation of follicular epithelial cells (outer root sheath cells), and what is more, autonomous organogenesis were clearly determined to be induced by culturing in the presence of BIO followed by culturing after removing BIO.

Versican gene = test: RT-PCR analysis (1) of cell mass, Versican; conditions: in the presence of BIO, ascribed to relative decrease of hair papilla cells, FIG. 7
Method: as §1, §2, §3, §4, §5, §6, §7

[2] = test system: cell masses prepared with hair papilla cells and outer root sheath cells; test: Immunohistofluorescent staining of cell mass prepared with hair papilla cells and outer root sheath cells
Method: Each of the cell masses obtained with the hanging drop method were fixed for 5 minutes with 0.1% paraformaldehyde and submitted for staining. In addition, a portion of the cell masses were embedded in OCT solution without fixing and prepared into frozen sections with a cryostat followed by immunohistostaining.
Blocking was carried out for 6 hours with PBS(−) containing 13% bovine serum albumin (BSA).
Each of the primary antibodies indicated in the following table were diluted by 1/200 with the aforementioned PBS(−) containing 13% bovine serum albumin (BSA), added to each sample and allowed to react for 4 hours at 4° C.
The cells were washed three times with PBS(−) containing 0.02% Tween 20.
Fluorescent secondary antibody (see Excel file) diluted by 1/200 with the aforementioned PBS(−) containing 13% bovine serum albumin (BSA) was added to each sample. In addition, the nuclei of the cells were stained blue with DAPI (4′-6-diamidino-2-phenylindole).
Antibody to cytokeratin 14 (K14) expressed in epidermal keratinocytes and outer root sheath cells is used for the purpose of confirming that these cells have not differentiated to hair roots (red). Since AE13 monoclonal antibody, which specifically reacts to hair keratin (Lynch et al., J. Cell Biol., 103, 2593, 1986), recognizes 44K/46K acidic hair keratin dimer, it is used to mark differentiation into hair roots (green). […]

Wnt3A = Wnt3A RT-PCR, RT-PCR analysis (2) of cell mass; conditions: FIG. 8
Method: Hair papilla cells were prepared to P3 (with P1 indicating one round of subculturing) in the presence of BIO loading, while keratinocytes were prepared up to and including P3.
as §9, §10, §4
Three days later, the medium was replaced with the same medium as that used above. The samples were collected on the 7th day and submitted for RT-PCR analysis (2) as described below (“0 day” in FIG. 8). The medium used for the same remaining cells was replaced with medium under conditions of the absence of BIO to induce differentiation, after which the samples collected on the 3rd day were submitted for RT-PCR analysis (2) as described below (“3 days” in FIG. 8).
RNA was extracted from the samples using Trizol (Invitrogen). […]
10 μl of the reaction solution was electrophoresed at 100 V in 2% agarose gel (Cosmobio)/TAE buffer. Target bands were detected after visualizing with ethidium bromide.

Lef-1 = test: RT-PCR analysis (1) of cell mass, Lef-1; conditions: in the presence of BIO (also detected in its absence), FIG. 7
Method: as §1, §2, §3, §4, §5, §6, §7

STAT-3 = test: RT-PCR analysis (1) of cell mass, STAT-3; conditions: presence of BIO compared with absence, FIG. 7
Method: as §1, §2, §3, §4, §5, §6, §7

TWIST-1 = test: RT-PCR analysis (1) of cell mass, TWIST-1; conditions: in the presence of BIO, ascribed to relative decrease of hair papilla cells, FIG. 7
Method: as §1, §2, §3, §4, §5, §6, §7

O=C1Nc2cc(Br)ccc2/C1=C1/Nc2ccccc2/C1=N\O [BIO, (2′Z,3′E)-6-bromoindirubin-3′-oxime]
expression of SHH gene (SHH (Sonic Hedge Hog)): not detected | staining for the proliferation marker, K167, in the cell mass ([1]; cell mass formed by adding BIO 0.1 to 5 μM, central portion and branch-like end portion, FIG. 3): positive | staining by AE13 antibody (hair keratin) ([1]; hair papilla cells and epidermal keratinocytes, stimulated with BIO, no staining without BIO, FIG. 5): staining is observed in some cell masses | expression of Wnt10B, relative expressed amount (Wnt10B; after removing BIO (day 10 and day 14)): increased over time | expression of Wnt10B, relative expressed amount (Wnt10B; cultured in the presence of BIO (day 7), versus control cultured in the absence of BIO): about the same level as that of a control | expression of Versican gene (Versican gene): expression appearing to decrease | immunostaining by Ber-EP4 antibody (hair buds) ([2]; hair papilla cells and outer root sheath cells stimulated with BIO, FIG. 6): clearly observed | staining by AE13 antibody (hair keratin) ([2]; hair papilla cells and outer root sheath cells, BIO stimulation versus absence of BIO, FIG. 5): considerably enhanced | expression of Wnt3A (Wnt3A; 3rd day after removal of BIO ("3 days")): expression of Wnt3A was observed | expression of Wnt3A (Wnt3A; cultured in the presence of BIO, 7th day ("0 day")): not being observed at all | expression of Lef-1 gene (Lef-1): detected | expression of STAT-3 gene (STAT-3): detected prominently | expression of TWIST-1 gene (TWIST-1): expression appearing to decrease
